According to paper PMC7026080, “Phenotypic high-throughput screening platform identifies novel chemotypes for necroptosis inhibition” (Cell Death Discovery, 2020):

Legend:
HT29 cells = experiment: Necroptosis protection in HT29 cells (TNF-α + Smac mimetic + Z-VAD-FMK), 24 h; assay type: cell-based, human; conditions: compounds at 10 μM, hTNF-α + Smac mimetic + Z-VAD-FMK
Description: (§1) Necroptosis inhibition properties were further examined using two additional cellular models of regulated necrosis. First, in human adenocarcinoma HT29 cells, and then in immortalized murine microglial BV2 cells, where we co-incubated a mixture of human or murine TNF-α, Smac mimetic […], pan-caspase inhibitor Z-VAD-FMK[29] or Z-VAD-FMK alone, and tested compounds at 10 μM for 24 h. […] In parallel, preliminary data for compound liver toxicity was extrapolated using HepG2 cells.
(§2) Fig. 3 Secondary-stage cascade for hit validation and compound refinement for further studies. a Compound ability to prevent necroptosis execution in HT29 cells co-incubated with 20 ng/mL hTNF-α (T) together with 250 nM Smac mimetic BV6 (S) and […] Z-VAD-FMK (Z), and selected compounds at 10 μM for 24 h. b Selected compound ability to prevent necroptosis execution in BV2 cells co-incubated with 25 μM Z-VAD-FMK (Z) and compounds at 10 μM for 24 h. c Selected compound toxicity evaluation in HepG2 cells incubated with test compounds at 100 and 50 μM for 24 h. Data represent mean values ± SEM of three independent experiments normalized to untreated control. Cell viability was assessed using a luminescence-based readout for AK release and ATP production, and a colorimetric-based readout for LDH release and MTS metabolism. ns, not significant; *p < 0.05, ***p < 0.001.
(§3) Cell treatments and viability assays. […]

BV2 cells = experiment: Necroptosis protection in BV2 cells (Z-VAD-FMK), 24 h; assay type: cell-based, murine; conditions: compounds at 10 μM, 25 μM Z-VAD-FMK
Description: as §1, §2, §3

Structure (SMILES): CN1C(=O)C(Cc2c[nH]c3ccccc23)NC1=S (centres unmarked) [Nec-1, necrostatin-1]
- Protection from necroptosis in HT29 cells (membrane integrity by AK and LDH release, ATP levels) (HT29 cells): completely rescued membrane integrity and ensured metabolic cell viability
- Protection from necroptosis execution in BV2 cells (BV2 cells): complete protection against necroptosis execution
